Assays:
Escherichia coli DSM 498 = assay: disc diffusion assay; format: cell-based; details: DSM498, 50 μg per disc, read-out: growth inhibition zone
[1] = tested on: Escherichia coli I-11276b; assay: disc diffusion assay, multidrug-resistant pathogen; format: cell-based; details: I11276B; Escherichia coli I-11276b (multidrug-resistant); 4 μg per disc; read-out: growth inhibition zone
Procedure: (§1) Compounds 1 and 2 were tested against a range of microorganisms, namely the Gram-positive bacterium Bacillus megaterium DSM 32, the Gram-negative bacterium Escherichia coli JM 83 and Pseudoroseovarius crassostreae DSM 16950^T; the fungal organisms utilized were Eurotium rubrum DSM 62631, Microbotryum violaceum MB#110229, and Mycotypha microspora MB#271115. Tests were performed according to Reference. 50 μg of pure compounds or positive controls were taken from a solution of 1 mg/mL and applied on sterile paper discs on agar plates of the corresponding medium for each test organism. Multidrug-resistant pathogens Escherichia coli I-11276b, MRSA LT-1338, MRSA LT-1334 were tested with 4 μg of compound 2 in each disc. Thereafter, suspensions of the organisms were sprayed on the agar and incubated. Miconazole and streptomycin were used as positive controls. Inhibition zones were measured from the edge of the disc to the end of the area free of growth. Only total inhibition (>1 mm) was considered as a positive result.

MRSA LT-1334 = assay: disc diffusion assay, multidrug-resistant pathogen; format: cell-based; details: Staphylococcus aureus; MRSA LT-1334 (multidrug-resistant); 4 μg per disc; read-out: growth inhibition zone
Procedure: as §1

MRSA LT-1338 = assay: disc diffusion assay, multidrug-resistant pathogen; format: cell-based; details: Staphylococcus aureus; MRSA LT-1338 (multidrug-resistant); 4 μg per disc; read-out: growth inhibition zone
Procedure: as §1

[2] = tested on: Bacillus megaterium DSM 32; assay: disc diffusion assay; format: cell-based; details: Priestia megaterium, DSM32, 50 μg per disc, read-out: growth inhibition zone
Procedure: as §1

[3] = tested on: Eurotium rubrum DSM 62631; assay: disc diffusion assay; format: cell-based; details: for zone of inhibition at 50 µg/disc: Aspergillus ruber, DSM62631, 50 μg per disc, read-out: growth inhibition zone
Procedure: as §1

[4] = tested on: Microbotryum violaceum MB#110229; assay: disc diffusion assay; format: cell-based; details: 50 μg per disc, read-out: growth inhibition zone
Procedure: as §1

[5] = tested on: Mycotypha microspora MB#271115; assay: disc diffusion assay; format: cell-based; details: 50 μg per disc, read-out: growth inhibition zone
Procedure: as §1

[6] = tested on: Pseudoroseovarius crassostreae DSM 16950T; assay: disc diffusion assay; format: cell-based; details: Aliiroseovarius crassostreae, DSM16950T, 50 μg per disc, read-out: growth inhibition zone
Procedure: as §1

human GPR84 [7] = biological target: T1, human GPR84 (Homo sapiens, UniProt Q9NQS5); assay: cAMP accumulation assay in CHO cells expressing human GPR84; format: cell-based; parameters: Emax: dose or concentration left out as unconfirmed; details: for activity in cAMP assay (in words): Gi-mediated signaling; for cAMP Assay percent receptor activation: at 100 μM, forskolin 10 μM; for EC50: read-out: cAMP Assay EC50 ± SD
T1 construct: CHO-hGPR84)
T1 sequence (Q9NQS5 whole entry): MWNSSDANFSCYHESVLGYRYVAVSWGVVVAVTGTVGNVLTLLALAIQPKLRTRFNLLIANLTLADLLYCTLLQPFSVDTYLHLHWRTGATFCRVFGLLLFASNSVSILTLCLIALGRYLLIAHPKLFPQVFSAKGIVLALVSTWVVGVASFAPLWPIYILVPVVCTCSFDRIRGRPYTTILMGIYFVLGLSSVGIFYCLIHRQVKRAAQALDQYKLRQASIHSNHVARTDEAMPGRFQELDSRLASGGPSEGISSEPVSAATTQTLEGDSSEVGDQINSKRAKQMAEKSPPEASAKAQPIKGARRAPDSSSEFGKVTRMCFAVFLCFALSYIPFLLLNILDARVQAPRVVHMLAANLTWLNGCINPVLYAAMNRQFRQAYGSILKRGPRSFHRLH
Description: (§2) cAMP accumulation assays determined the potency of the test compounds to inhibit forskolin-induced cAMP accumulation in Chinese hamster ovary (CHO) cells, stably expressing human GPR84, whereas the β-arrestin recruitment assays used the enzyme complementation technology.
(§3) The recombinant CHO cell line expressing the human GPR84 (CHO-hGPR84) with a β-galactosidase fragment and β-arrestin containing the complementary fragment of the enzyme was purchased from DiscoverX (Fremont, CA, USA). This cell line was used for the β-arrestin recruitment assays as well as for cAMP accumulation assays. The CHO-hGPR84 cells were cultured in F12 medium supplemented with 10% FCS, 100 units/mL penicillin G, 100 μg/mL streptomycin, 800 μg/mL G 418, 300 μg/mL hygromycin B, and 1% ultraglutamin (Invitrogen, Carlsbad, CA or Sigma-Aldrich, St. Louis, MO, USA). Stock solutions of compounds were prepared in DMSO (final DMSO concentration: 1%). Data were analyzed using Graph Pad Prism version 6.0 (San Diego, CA, USA). Concentration-response data were fitted by nonlinear regression to estimate EC50 values.
cAMP assays were performed as previously described. CHO cells overexpressing the human GPR84 were stimulated with forskolin (10 μM) in the absence (control) or presence of test compound for 15 min. The reaction was stopped by the addition of hot (90 °C) lysis solution containing 4 mM EDTA and 0.01% Triton X-100 in water. cAMP levels were quantified by a radioactive assay using [³H]cAMP (Perkin-Elmer, Rodgau, Germany). The forskolin-induced change in cAMP concentration in the presence of the test compound was expressed as a percentage of the response to forskolin in the absence of agonist (% of control). Three independent experiments, each in duplicates were performed.

human GPR84 [8] = biological target: T1, human GPR84; assay: β-arrestin recruitment assay (β-galactosidase enzyme complementation) in CHO-hGPR84 cells; format: cell-based; details: for EC50: n = 5, read-out: β-Arrestin Assay EC50 ± SD; for Emax: relative to maximal effect of full agonist embelin (10 μM) = 100%, read-out: β-Arrestin Assay Efficacy (Emax)
Description: as §2
as §3, with “The CHO-hGPR84 cells were cultured in F12 medium supplemented with 10% FCS, 100 units/mL penicillin G, 100 μg/mL streptomycin, 800 μg/mL G 418, 300 μg/mL hygromycin B, and 1% ultraglutamin (Invitrogen, Carlsbad, CA or Sigma-Aldrich, St. Louis, MO, USA).” left out
β-arrestin assays were performed as previously described. Briefly, CHO cells expressing the human GPR84 with a β-galactosidase fragment and β-arrestin containing the complementary fragment of the enzyme were incubated with a series of compound dilutions (in DMSO, final DMSO concentration: 1%) for 90 min before adding the detection reagent (DiscoverX®, Fremont, CA, USA). After 60 min of incubation at room temperature the luminescence was measured using an NXT plate reader (Perkin-Elmer, Rodgau, Germany). Three to five independent experiments were performed, each in duplicates.

human GPR84 [9] = biological target: T1, human GPR84; parameters: method as in PMID 28406627; details: relative to maximal effect of full agonist decanoic acid (100 μM) = 100%; cited from earlier work

CCCCCC[C@H]1C[C@H]1CC(=O)O (relative stereo) [Compound 2, cis-2-(2-hexylcyclopropyl)-acetic acid]
zone of inhibition at 50 µg/disc (Escherichia coli DSM 498): 3 mm
zone of inhibition at 4 µg/disc [1]: 2 mm
zone of inhibition at 4 µg/disc (MRSA LT-1334): 3 mm
zone of inhibition at 4 µg/disc (MRSA LT-1338): 2 mm
zone of inhibition at 50 µg/disc [2]: 10 mm
zone of inhibition at 50 µg/disc [3]: 10 mm
zone of inhibition at 50 µg/disc [4]: 10 mm
zone of inhibition at 50 µg/disc [5]: 6 mm
zone of inhibition at 50 µg/disc [6]: 5 mm
activity in cAMP assay (in words) (human GPR84 [7]): did neither induce nor block Gi-mediated signaling
cAMP Assay percent receptor activation (human GPR84 [7]): 24%
EC50 (human GPR84 [7]): > 100 µM
potency in β-arrestin assay relative to dodecanoic acid (human GPR84 [8]; fold more potent than dodecanoic acid (EC50 = 2.84 μM)): 25 fold
EC50 (human GPR84 [8]): 0.114 ± 0.135 µM
Emax (human GPR84 [8]): 54%

CCCCCC[C@H]1C[C@H]1CCCC(=O)O (relative stereo) [Compound 1, cis-4-(2-hexylcyclopropyl)-butanoic acid]
zone of inhibition at 50 µg/disc (Escherichia coli DSM 498): 2 mm
growth inhibition zone ([3]; 50 μg per disc): devoid of activity
zone of inhibition at 50 µg/disc [4]: 8 mm
zone of inhibition at 50 µg/disc [5]: 3 mm
zone of inhibition at 50 µg/disc [6]: 5 mm
activity in cAMP assay (in words) (human GPR84 [7]): inactive
cAMP Assay percent receptor activation (human GPR84 [7]): 0%
EC50 (human GPR84 [7]): > 100 µM
activity in β-arrestin assay (in words) (human GPR84 [8]): inactive
β-Arrestin Assay percent receptor activation (human GPR84 [8]; at 30 μM): 17%
EC50 (human GPR84 [8]): > 30 µM

[H]/N=C(/N)N[C@H]1[C@H](O)[C@@H](O)[C@H](O[C@@H]2O[C@@H](C)[C@](O)(C=O)[C@H]2O[C@@H]2O[C@@H](CO)[C@H](O)[C@@H](O)[C@@H]2NC)[C@@H](N/C(N)=N\[H])[C@@H]1O [Streptomycin, reference compound]
zone of inhibition at 50 µg/disc (Escherichia coli DSM 498): 6 mm
zone of inhibition at 50 µg/disc [2]: 9 mm
zone of inhibition at 50 µg/disc [6]: 6 mm

Clc1ccc(COC(Cn2ccnc2)c2ccc(Cl)cc2Cl)c(Cl)c1 (stereo not shown) [Miconazole, reference compound]
zone of inhibition at 50 µg/disc [3]: 8 mm
zone of inhibition at 50 µg/disc [4]: 6 mm
zone of inhibition at 50 µg/disc [5]: 9 mm

CCCCCCCCCC(=O)O [Decanoic acid]
cAMP Assay Efficacy (Emax) (human GPR84 [9]): 100% [26]

CCCCCCCCCCCC(=O)O [Dodecanoic acid, reference compound]
Emax (human GPR84 [7]; CHO, read-out: cAMP Assay Efficacy (Emax)): 94%
EC50 (human GPR84 [7]): 8.87 ± 4.46 µM
EC50 (human GPR84 [8]): 2.84 ± 0.54 µM
Emax (human GPR84 [8]): 95%

Source: PMC6213206, “Cyclopropane-Containing Fatty Acids from the Marine Bacterium Labrenzia sp. 011 with Antimicrobial and GPR84 Activity” (Marine Drugs, 2018)
